Test results as given in PMC9127068 (ChemMedChem, 2022).

Target: T1, 5-HT1A receptor (5-HT1AR) (Homo sapiens, UniProt P08908)
T1 sequence (P08908 1-422): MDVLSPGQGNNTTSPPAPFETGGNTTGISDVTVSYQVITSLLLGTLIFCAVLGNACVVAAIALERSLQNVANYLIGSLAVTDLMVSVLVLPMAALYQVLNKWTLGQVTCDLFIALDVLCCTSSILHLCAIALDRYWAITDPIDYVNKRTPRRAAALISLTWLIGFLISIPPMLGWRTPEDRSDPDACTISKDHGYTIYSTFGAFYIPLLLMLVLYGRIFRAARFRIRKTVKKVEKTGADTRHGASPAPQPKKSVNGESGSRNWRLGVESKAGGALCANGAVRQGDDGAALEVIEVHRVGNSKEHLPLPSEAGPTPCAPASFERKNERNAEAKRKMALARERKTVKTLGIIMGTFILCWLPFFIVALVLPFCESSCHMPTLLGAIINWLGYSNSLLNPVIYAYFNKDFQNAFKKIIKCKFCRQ
Assay: radioligand displacement of [3H]-8-OH-DPAT
Assay type: binding

| Ki [nM] | Compound |
| --- | --- |
| 1.8 | CCCN(CCCCCCNS(=O)(=O)c1cccc2c(N(C)C)cccc12)C1CCc2cccc(O)c2C1 (centres unmarked) [5a] |
| 10 | CCCN(CCCCCCNc1ccc([N+](=O)[O-])c2nonc12)C1CCc2cccc(O)c2C1 (centres unmarked) [5b] |
